{"source": "patent US20060258581A1", "about": "“Methods and composition for derepressions of IAP-inhibited caspase” (priority 2001, published 2006)", "key": {"[1]": {"system": "caspase-3 and caspase-7 activity in Jurkat cells", "assay": "Caspase-3 and caspase-7 activity in whole Jurkat cells, cell permeable substrate", "format": "cell-based", "conditions": "8 μM, 20 hours"}, "XIAP-inhibited caspase-3": {"target": "T1, XIAP-inhibited caspase-3 (Homo sapiens, UniProt P98170)", "T1 construct": "in a caspase derepression assay using full length XIAP; made in house; host or cells: bacteria", "T1 sequence (P98170 whole entry)": "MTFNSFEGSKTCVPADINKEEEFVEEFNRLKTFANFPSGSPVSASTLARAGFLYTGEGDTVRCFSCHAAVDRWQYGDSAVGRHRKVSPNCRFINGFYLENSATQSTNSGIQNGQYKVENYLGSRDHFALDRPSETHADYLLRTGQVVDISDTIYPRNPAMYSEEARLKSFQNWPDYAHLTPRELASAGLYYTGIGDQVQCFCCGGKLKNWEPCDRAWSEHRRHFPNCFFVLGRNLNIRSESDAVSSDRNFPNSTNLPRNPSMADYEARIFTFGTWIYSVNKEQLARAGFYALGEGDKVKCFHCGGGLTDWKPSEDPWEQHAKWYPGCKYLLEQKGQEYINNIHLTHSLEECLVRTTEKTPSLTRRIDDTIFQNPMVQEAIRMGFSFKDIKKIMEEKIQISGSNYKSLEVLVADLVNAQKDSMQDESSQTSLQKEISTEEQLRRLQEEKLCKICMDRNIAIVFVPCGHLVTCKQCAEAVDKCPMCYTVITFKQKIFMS", "assay": "IAP derepression assay: Ac-DEVD-AFC hydrolysis by caspase-3 in the presence of GST-XIAP", "format": "biochemical", "conditions": "in words", "protocol": "The ratio of Vmax for hydrolysis of Ac-DEVD-AFC in the presence and absence of the candidate mixture was calculated and used to identify those that contain an agent that derepresses an IAP-inhibited caspase.\nEach mixture was aliquoted in a 25 microliter volume and in duplicate to a well of a 96 well microtiter plate. […] Fluorescence of liberated AFC was immediately detected from each well for 30 minutes at 30 second intervals. The Vmax for hydrolysis of AC-DEVD-AFC from each well was measured using the softmax software package."}, "[2]": {"system": "HCT-116 colon cancer cells", "assay": "HCT-116 colon cancer xenograft in Balb/C nu-/nu- mice", "format": "in vivo", "conditions": "30 mg/kg i.p. on days 6, 7 and 8", "protocol": "Additional experiments were performed using a different tumor xenograft model. HCT-116 colon cancer cells (2.5 million) were injected subcutaneously in the flanks of female Balb/C nu-/nu-mice. […] Tumor volume was measured by external calipers at least twice weekly for 19 days (see FIG. 32c). On day 19, the mice were sacrificed and the tumors were excised and weighed."}, "[3]": {"system": "Du145 prostate cancer cells", "assay": "Combination with anticancer drugs, MTT assay", "format": "cell-based", "conditions": "10 μM, 48 hours", "protocol": "The percentage of viable cells relative to control was determined using a MTT (3-(4,5-dimethylthiazolyl-2)-2,5-diphenyltetrazolium bromide) assay which is commercially available (Sigma). […] Similar results were obtained for PPC1 (FIG. 31b) and PC3 (FIG. 31c) prostate cancer cells treated with VP16, DOX, or TAXOL, and for H460 (FIG. 31d) lung cancer cells treated with VP16 or DOX."}, "Jurkat leukemia cells [4]": {"system": "Jurkat leukemia cells", "assay": "Jurkat leukemia cell death, Annexin V/propidium iodide flow cytometry", "format": "cell-based"}, "HeLa cells": {"system": "HeLa cells", "assay": "Transfected HeLa cells, apoptosis by Annexin V", "format": "cell-based", "conditions": "5 μM, 20 hours", "protocol": "In addition to transfecting the cells with full-length XIAP, analogous assays were performed with HeLa cells transfected with plasmids over-expressing various XIAP mutants. […] The mutant was produced by site-directed mutagenesis to modify positions 148, 219, 223, 314 and 323 to contain alanine. HeLa cells were also transiently transfected with plasmids encoding Bcl-XL, an anti-apoptotic protein that operates upstream of caspases to suppress Cytochrome C release from mitochondria. HeLa cells (2.5×10^5) were seeded onto six well plates in 2 mL DMEM H21 with 5% FBS. After 24 hrs, cells were transfected (Gene Porter) with plasmids. […] Both floating and adherent cells were then recovered from cultures, washed, and apoptosis was determined by Annexin V staining using flow cytometry.\nBcl-XL over-expression did afford resistance to traditional anticancer drugs such as etoposide and CrmA (a caspase-8 inhibitor), and protected cells from apoptosis induced by TRAIL, confirming that these anti-apoptotic proteins were functional in these experiments."}, "[5]": {"system": "PC-3 and LNCaP prostate cancer cell lines", "assay": "Clonogenic survival (colony formation) assay", "format": "cell-based", "conditions": "Homo sapiens", "protocol": "In addition to short-term cytotoxicity assays selected polyphenylurea compounds were tested for effects on clonogenic survival of cancer cells in colony formation assays, which can be considered a more stringent test of anticancer activity."}, "[6]": {"system": "tumor cells pulsed with specific antigen, antigen-specific T cells", "assay": "Antigen-specific CTL cytotoxicity, 51Cr release", "format": "cell-based", "conditions": "10 μM, 4 hours", "protocol": "After 4 hours, ^51Cr release was measured. Data shown in FIG. 39 are expressed as a percentage of total release induced by detergent lysis, and data represent mean±standard deviation of duplicate determinations."}, "[7]": {"system": "mouse embryo fibroblasts, human prostate epithelial cells, peripheral blood lymphocytes", "assay": "Normal cells (MEFs, human prostate epithelial cells, PBLs), 2 days, annexin-V", "format": "cell-based", "design": "dose or concentration left out as unconfirmed", "protocol": "After 2 days, cell viability was assessed by annexin-V staining."}, "[8]": {"system": "PPC1, ALVA31, DU145 and HeLa cells", "assay": "Combination with TRAIL", "format": "cell-based", "conditions": "1 µM", "protocol": "Similar tests of the effects of polyphenyl urea compounds on apoptosis induction by the biological agent TRAIL, an apoptosis inducing member of the Tumor Necrosis Factor (TNF) family were also performed."}, "XIAP": {"target": "XIAP (Homo sapiens, UniProt P98170)", "sequence (P98170 whole entry)": "as above", "assay": "SMAC binding/competition assay: biotinylated SMAC 7-mer on NeutrAvidin plates, GST-XIAP detected by anti-GST", "conditions": "in words", "protocol": "Peptide compounds containing unnatural amino acids in the 792 series, 792-33 and 792-35 (see FIG. 12 and 20 and Example XI), and an active compound in the TPI 1332 series, TPI 1332-69, were tested for binding activity in the SMAC binding assay as described above in Example X. For this assay, biotinylated SMAC 7-mer peptide (50 ng) was bound to 96 well plates coated with NeutrAvidin (Pierce, Rockford, Ill.) at 1 mg/ml in 100 μl per well of 50 mM HEPES pH 7.4, 100 mM NaCl 1 mM EDTA, 10% sucrose, 0.1% CHAPS, 10 mM DTT."}, "Jurkat leukemia cells [9]": {"system": "Jurkat leukemia cells", "assay": "Jurkat leukemia cell death, Annexin V/propidium iodide flow cytometry", "format": "cell-based", "conditions": "for cells killed: one day treatment", "protocol": "The following assay was used to test the ability of individual compounds from the TPI 1396 and TPI 1391 libraries to induce apoptosis of cultured tumor cell lines. Each of the compounds listed in Table IX was individually added to Jurkat leukemia cells (6.25×10^5 cells/mL) in RPMI containing 2.5% FBS at various concentrations for 20 hours. After incubation, cells were washed and stained with FITC-conjugated Annexin V antibody and propidium iodide (Biovision; Mountain View, Calif.). Cells were incubated for 20 minutes at room temperature in the dark and fluorescence was measured by flow cytometry (FACScan, Immunocytometry system; Becton-Dickinson; San Jose, Calif.). Cells staining positive for Annexin V were deemed non-viable.\nThe TPI I396-34 and TPI 1391-28 compounds were further tested as set forth below."}, "[10]": {"system": "PPC1 prostate cancer cells", "assay": "PPC1 prostate cancer xenograft in Balb/C nu-/nu- mice", "format": "in vivo", "conditions": "30 mg/kg i.p. for 2 or 3 days", "source_text": "Similar data was obtained using TPI 1396-22 (see FIGS. 33a and 33b). […] In FIG. 33b, the mice were sacrificed at day 19 and the tumors excised and weighed."}}, "note": "“Also recorded” adds a separate entry of the source. Like-named read-outs stand apart in the source and are kept apart here."}
{"smiles": "COc1ccc(CCN2CCC[C@@H]2CN(C(=O)Nc2ccccc2)[C@@H](CNC(=O)Nc2ccccc2)CC2CCCCC2)cc1", "note": "[TPI 1396-34]", "values": [{"measurement": "caspase activation in whole cells", "setting": "[1]", "result": "induced caspase activation"}, {"measurement": "activity in the caspase derepression assay using full length XIAP", "setting": "XIAP-inhibited caspase-3", "result": "active XIAP inhibitors"}, {"measurement": "tumor size / growth, HCT116 xenograft", "setting": "[2]", "result": "tumor size was reduced; also recorded: significantly slowed the rate of growth"}, {"measurement": "effect on dose-dependent cytotoxicity of VP16, DOX and TAXOL", "setting": "[3]", "result": "significantly increased dose-dependent cytotoxicity"}, {"measurement": "time to half-maximal killing", "setting": "Jurkat leukemia cells [4]; 10 µM", "result": "approximately 12 hours"}, {"measurement": "apoptosis in the presence of zVAD-fmk", "setting": "Jurkat leukemia cells [4]; 100 μM zVAD-fmk, 20 hours", "result": "suppressible"}, {"measurement": "apoptosis in HeLa cells over-expressing Bcl-XL", "setting": "HeLa cells", "result": "not blocked"}, {"measurement": "apoptosis in HeLa cells over-expressing full-length XIAP", "setting": "HeLa cells", "result": "protected"}, {"measurement": "apoptosis in HeLa cells transfected with a control vector", "setting": "HeLa cells", "result": "induced apoptosis"}, {"measurement": "activity at 10 µM", "setting": "[5]; 10 μM, read-out: colony formation, % of control", "result": "< 5", "unit": "%"}, {"measurement": "EC50", "setting": "[5]; 3 days culture, colonies counted one week later, read-out: average EC50 dose, clonogenic survival", "result": 3, "unit": "µM"}, {"measurement": "CTL-mediated lysis of tumor targets", "setting": "[6]", "result": "sensitizes tumor targets to CTL-mediated lysis"}, {"measurement": "increase of percentage cell death above background", "setting": "[7]", "result": "less than one-fold"}, {"measurement": "sensitization to TRAIL-induced apoptosis", "setting": "[8]", "result": "sensitized"}, {"measurement": "competition with XIAP binding to the SMAC peptide (SMAC competition assay)", "setting": "XIAP", "result": "does not compete"}, {"measurement": "cells killed", "setting": "Jurkat leukemia cells [9]; 5 μM", "result": "about 75%"}, {"measurement": "cells killed", "setting": "Jurkat leukemia cells [9]; 8 μM", "result": "~85", "unit": "%"}, {"measurement": "time to maximum killing", "setting": "Jurkat leukemia cells [9]; 10 µM", "result": "about 24 hours"}, {"measurement": "cytotoxicity at 1 µM", "setting": "Jurkat leukemia cells [9]; Homo sapiens, Jurkat, 20 h, 1 μM, 20 hours, read-out: % nonviable cells", "result": 13, "unit": "%"}, {"measurement": "cytotoxicity at 5 µM", "setting": "Jurkat leukemia cells [9]; Homo sapiens, Jurkat, 20 h, 5 μM (first column headed 5), 20 hours, read-out: % nonviable cells", "result": 73, "unit": "%"}, {"measurement": "cytotoxicity at 5 µM", "setting": "Jurkat leukemia cells [9]; Homo sapiens, Jurkat, 20 h, 5 μM (second column headed 5), 20 hours, read-out: % nonviable cells", "result": 51, "unit": "%"}, {"measurement": "cytotoxicity at 10 µM", "setting": "Jurkat leukemia cells [9]; Homo sapiens, Jurkat, 20 h, 10 μM, 20 hours, read-out: % nonviable cells", "result": 62, "unit": "%"}, {"measurement": "cytotoxicity at 25 µM", "setting": "Jurkat leukemia cells [9]; Homo sapiens, Jurkat, 20 h, 25 μM, 20 hours, read-out: % nonviable cells", "result": 83, "unit": "%"}, {"measurement": "cytotoxicity at 50 µM", "setting": "Jurkat leukemia cells [9]; Homo sapiens, Jurkat, 20 h, 50 μM, 20 hours, read-out: % nonviable cells", "result": 85, "unit": "%"}, {"measurement": "EC50", "setting": "Jurkat leukemia cells [9]; Homo sapiens, Jurkat, 24 h, one-day exposure, read-out: EC50 for killing Jurkat leukemia cells", "result": "~6.5", "unit": "µM"}, {"measurement": "tumor size / growth, PPC1 xenograft", "setting": "[10]", "result": "reduced tumor size; also recorded: significantly slowed the rate of growth"}]}
